Data: ChEMBL document CHEMBL4219121, “Synthesis, antitumor activity and DNA binding features of benzothiazolyl and benzimidazolyl substituted isoindolines” (Bioorg Med Chem, 2018)
The source made the active and inactive calls. The rule behind the calls is not given here.

Columns and labels:
SW-620 [1] = assay: Antiproliferative activity against human SW620 cells after 72 hrs by MTT assay; format: functional, cell-based; conditions: SW-620, 72 h
MCF7 = assay: Antiproliferative activity against human MCF7 cells after 72 hrs by MTT assay; format: functional, cell-based; conditions: MCF7, 72 h
Calf thymus DNA [2] = assay: Binding affinity to calf thymus DNA at 50 uM by circular dichroism spectral analysis; format: nucleic-acid assay; conditions: Bos taurus
[3] = Drug uptake in cytoplasm of human Caki2 cells at 50 uM measured after 5 hrs by Phalloidin CruzFluorTM 488 conjugate/propidium iodide staining based fluorescence microscopic analysis; format: ADME, subcellular; conditions: caki-2, 5 h
[4] = Drug uptake in human Caki2 cells at 50 uM measured after 5 hrs by Phalloidin CruzFluorTM 488 conjugate/propidium iodide staining based fluorescence microscopic analysis; format: ADME, cell-based; conditions: caki-2, 5 h
HepG2 = assay: Antiproliferative activity against human HepG2 cells after 72 hrs by MTT assay; format: functional, cell-based; conditions: HepG2, 72 h
Calf thymus DNA [5] = assay: Binding affinity to calf thymus DNA assessed as change in melting temperature at drug/DNA ratio of 0.5 by spectrophotmetric method; format: nucleic-acid assay; conditions: Bos taurus
HeLa [6] = assay: Antiproliferative activity against human HeLa cells after 72 hrs by MTT assay; format: functional, cell-based
Calf thymus DNA [7] = assay: Binding affinity to calf thymus DNA assessed as change in melting temperature at drug/DNA ratio of 1 by spectrophotmetric method; format: nucleic-acid assay; conditions: Bos taurus
CAKI-2 = assay: Cytotoxicity against human Caki2 cells after 72 hrs by MTT assay; format: functional, cell-based; conditions: CAKI-2, 72 h
[8] = Drug uptake in nucleus of human Caki2 cells at 50 uM measured after 5 hrs by Phalloidin CruzFluorTM 488 conjugate/propidium iodide staining based fluorescence microscopic analysis; format: ADME, subcellular; conditions: caki-2, 5 h
BJ = assay: Antiproliferative activity against human BJ cells after 72 hrs by MTT assay; format: cell-based
Calf thymus DNA [9] = assay: Binding affinity to calf thymus DNA at 1 to 25 uM by circular dichroism spectral analysis; format: nucleic-acid assay; conditions: Bos taurus
[10] = biological target: T1, DNA topoisomerase 1 (Homo sapiens) (UniProt P11387); assay: Poison activity at human topoisomerase1 assessed as accumulation of nicked DNA at 5 to 50 uM using supercoiled pUC19 as substrate pretreated with substrate for 45 mins followed by enzyme addition measured by agarose gel electrophoresis
T1 sequence (whole entry): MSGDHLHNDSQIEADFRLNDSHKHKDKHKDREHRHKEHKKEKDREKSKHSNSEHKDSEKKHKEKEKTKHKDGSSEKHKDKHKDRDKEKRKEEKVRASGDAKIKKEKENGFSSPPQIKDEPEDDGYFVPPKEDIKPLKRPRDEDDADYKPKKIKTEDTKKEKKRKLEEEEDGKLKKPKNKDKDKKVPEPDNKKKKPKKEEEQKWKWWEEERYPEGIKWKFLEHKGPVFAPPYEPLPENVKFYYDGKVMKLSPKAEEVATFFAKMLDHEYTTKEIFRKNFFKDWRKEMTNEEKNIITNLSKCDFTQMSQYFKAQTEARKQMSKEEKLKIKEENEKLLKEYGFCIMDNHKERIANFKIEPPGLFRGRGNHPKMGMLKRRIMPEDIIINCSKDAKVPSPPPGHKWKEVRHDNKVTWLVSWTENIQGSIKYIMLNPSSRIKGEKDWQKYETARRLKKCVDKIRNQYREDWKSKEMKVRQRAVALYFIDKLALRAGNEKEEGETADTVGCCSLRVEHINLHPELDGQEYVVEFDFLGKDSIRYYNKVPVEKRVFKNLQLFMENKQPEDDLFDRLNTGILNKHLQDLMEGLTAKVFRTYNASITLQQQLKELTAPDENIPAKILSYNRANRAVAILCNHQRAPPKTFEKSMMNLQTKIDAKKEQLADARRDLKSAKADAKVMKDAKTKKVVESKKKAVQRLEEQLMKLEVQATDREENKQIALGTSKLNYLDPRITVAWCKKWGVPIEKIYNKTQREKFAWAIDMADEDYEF

[11] = biological target: T1, DNA topoisomerase 1 (Homo sapiens); assay: Inhibition of human topoisomerase1-mediated DNA relaxation assessed as DNA intercalation at 5 to 50 uM using supercoiled pUC19 as substrate pretreated with substrate for 45 mins followed by enzyme addition measured by agarose gel electrophoresis
Calf thymus DNA [12] = assay: Binding affinity to calf thymus DNA assessed as change in melting temperature at drug/DNA ratio of 0.25 by spectrophotmetric method; format: nucleic-acid assay; conditions: Bos taurus
[13] = biological target: T1, DNA topoisomerase 1 (Homo sapiens); assay: Poison activity at human topoisomerase1 assessed as accumulation of nicked DNA at 50 uM using supercoiled pUC19 as substrate pretreated with substrate for 45 mins followed by enzyme addition measured by agarose gel electrophoresis relative to control
[14] = biological target: T1, DNA topoisomerase 1 (Homo sapiens); assay: Poison activity at human topoisomerase1 assessed as accumulation of nicked DNA at 20 uM using supercoiled pUC19 as substrate pretreated with substrate for 45 mins followed by enzyme addition measured by agarose gel electrophoresis relative to control
[15] = biological target: T1, DNA topoisomerase 1 (Homo sapiens); assay: Poison activity at human topoisomerase1 assessed as accumulation of nicked DNA at 10 uM using supercoiled pUC19 as substrate pretreated with substrate for 45 mins followed by enzyme addition measured by agarose gel electrophoresis relative to control
HeLa [16] = assay: Induction of apoptosis in human HeLa cells assessed as activation of caspase-8 at 1 uM after 24 to 48 hrs by colorimetric assay; format: functional, cell-based
Calf thymus DNA [17] = assay: Binding affinity to calf thymus DNA at 1 to 50 uM by circular dichroism spectral analysis; format: nucleic-acid assay; conditions: Bos taurus
HeLa [18] = assay: Cell cycle arrest in human HeLa cells assessed as accumulation at subG1 phase at 1 to 5 uM after 24 hrs by propidium iodide staining based flow cytometric method; format: functional
SW-620 [19] = assay: Cell cycle arrest in human SW620 cells assessed as accumulation at subG1 phase at 5 uM after 48 hrs by propidium iodide staining based flow cytometric method (reference value: 4.1 to 11.3 %); format: functional
HeLa [20] = assay: Induction of apoptosis in human HeLa cells assessed as phenotypic changes after 24 to 48 hrs by microscopic analysis; format: functional, cell-based
SW-620 [21] = assay: Induction of apoptosis in human SW620 cells assessed as activation of caspase-2 at 1 uM measured after 48 hrs by colorimetric assay; format: functional, cell-based
SW-620 [22] = assay: Induction of apoptosis in human SW620 cells assessed as activation of caspase-6 at 1 uM measured after 48 hrs by colorimetric assay; format: functional, cell-based
SW-620 [23] = assay: Induction of apoptosis in human SW620 cells assessed as phenotypic changes after 24 to 48 hrs by microscopic analysis; format: functional, cell-based
HeLa [24] = assay: Cell cycle arrest in human HeLa cells assessed as accumulation at subG1 phase at 1 uM after 48 hrs by propidium iodide staining based flow cytometric method (reference value: 17 to 20.1 %); format: functional
SW-620 [25] = assay: Cell cycle arrest in human SW620 cells assessed as accumulation at subG1 phase at 1 uM after 48 hrs by propidium iodide staining based flow cytometric method (reference value: 4.1 to 11.3 %); format: functional
SW-620 [26] = assay: Induction of apoptosis in human SW620 cells assessed as activation of caspase-8 at 1 uM after 24 to 48 hrs by colorimetric assay; format: functional, cell-based
SW-620 [27] = assay: Cell cycle arrest in human SW620 cells assessed as accumulation at subG1 phase at 1 to 5 uM after 24 hrs by propidium iodide staining based flow cytometric method; format: functional
HeLa [28] = assay: Cell cycle arrest in human HeLa cells assessed as accumulation at subG1 phase at 5 uM after 48 hrs by propidium iodide staining based flow cytometric method (reference value: 17 to 20.1 %); format: functional
[29] = biological target: DNA topoisomerase 2-alpha (Homo sapiens) (UniProt P11388); assay: Poison activity at human topoisomerase2 assessed as accumulation of linear DNA at 10 to 50 uM using supercoiled pUC19 as substrate pretreated with substrate for 45 mins followed by […] measured by ethidium bromide staining based agarose gel electrophoresis
HeLa [30] = assay: Induction of apoptosis in human HeLa cells assessed as activation of caspase-2 at 1 uM measured after 48 hrs by colorimetric assay; format: functional, cell-based

Sequence of DNA topoisomerase 2-alpha (Homo sapiens) (P11388 whole entry): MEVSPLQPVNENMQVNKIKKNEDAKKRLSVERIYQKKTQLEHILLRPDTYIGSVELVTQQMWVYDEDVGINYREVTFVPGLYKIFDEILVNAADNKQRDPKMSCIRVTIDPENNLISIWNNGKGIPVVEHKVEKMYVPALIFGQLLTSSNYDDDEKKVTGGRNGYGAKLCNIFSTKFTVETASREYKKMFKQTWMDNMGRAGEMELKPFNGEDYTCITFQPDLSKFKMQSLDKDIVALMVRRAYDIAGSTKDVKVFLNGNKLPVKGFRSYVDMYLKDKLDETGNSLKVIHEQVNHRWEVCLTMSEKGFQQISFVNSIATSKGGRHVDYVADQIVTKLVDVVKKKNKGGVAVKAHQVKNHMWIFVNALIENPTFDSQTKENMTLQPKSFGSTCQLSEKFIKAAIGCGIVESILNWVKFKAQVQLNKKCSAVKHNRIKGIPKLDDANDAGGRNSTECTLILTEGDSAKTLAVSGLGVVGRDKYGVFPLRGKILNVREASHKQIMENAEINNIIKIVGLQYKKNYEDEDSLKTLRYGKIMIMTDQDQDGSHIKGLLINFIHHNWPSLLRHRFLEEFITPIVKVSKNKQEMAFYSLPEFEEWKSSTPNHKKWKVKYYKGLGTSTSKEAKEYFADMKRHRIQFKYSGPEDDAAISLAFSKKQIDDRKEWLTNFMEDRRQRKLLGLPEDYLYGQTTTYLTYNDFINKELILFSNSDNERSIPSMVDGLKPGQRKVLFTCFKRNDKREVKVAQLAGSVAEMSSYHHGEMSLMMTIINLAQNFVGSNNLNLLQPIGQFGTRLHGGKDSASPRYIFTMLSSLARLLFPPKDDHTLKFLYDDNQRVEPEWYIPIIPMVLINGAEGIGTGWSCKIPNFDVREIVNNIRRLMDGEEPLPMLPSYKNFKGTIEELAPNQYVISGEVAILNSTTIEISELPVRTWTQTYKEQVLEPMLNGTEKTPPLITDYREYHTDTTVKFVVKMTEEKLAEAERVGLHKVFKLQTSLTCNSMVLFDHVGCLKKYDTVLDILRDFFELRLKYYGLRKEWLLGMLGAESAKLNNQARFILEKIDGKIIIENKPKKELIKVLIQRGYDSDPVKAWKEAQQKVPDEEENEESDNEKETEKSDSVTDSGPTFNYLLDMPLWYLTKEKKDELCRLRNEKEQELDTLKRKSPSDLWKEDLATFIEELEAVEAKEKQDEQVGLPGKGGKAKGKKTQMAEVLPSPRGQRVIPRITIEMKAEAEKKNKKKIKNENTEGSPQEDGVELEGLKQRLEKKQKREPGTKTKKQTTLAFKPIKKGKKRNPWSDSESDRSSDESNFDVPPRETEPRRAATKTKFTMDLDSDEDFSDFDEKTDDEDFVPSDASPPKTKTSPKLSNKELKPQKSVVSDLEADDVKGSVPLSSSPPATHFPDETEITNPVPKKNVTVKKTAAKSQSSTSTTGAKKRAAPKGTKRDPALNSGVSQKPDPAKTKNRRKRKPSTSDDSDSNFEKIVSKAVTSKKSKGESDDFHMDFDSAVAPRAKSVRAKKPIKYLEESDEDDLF

| Compound | IC50 (SW-620 [1]) | IC50 (MCF7) | Drug uptake [3] | Drug uptake [4] | IC50 (HepG2) | ΔTm (Calf thymus DNA [5]) | IC50 (HeLa [6]) | ΔTm (Calf thymus DNA [7]) | IC50 (CAKI-2) | Drug uptake [8] | IC50 (BJ) | ΔTm (Calf thymus DNA [12]) | further results |
| --- | --- | --- | --- | --- | --- | --- | --- | --- | --- | --- | --- | --- | --- |
| c1ccc2c(c1)CN(c1nc3ccccc3s1)/C2=N/c1nc2ccccc2s1 | 6.98 µM | 0.08 µM | Active | Active | 0.82 µM | -1.3 °C | 4.68 µM | -2.2 °C | 11.1 µM | Active | 4.87 µM |  | Activity (Calf thymus DNA [2]): inactive |
| CC(C)NC(=N)c1ccc2nc(/N=C3\c4ccccc4CN3c3nc4ccc(C(=N)NC(C)C)cc4[nH]3)[nH]c2c1.Cl.Cl | > 100 µM | 66.1 µM | Active | Active | 84.8 µM | 12.9 °C | 96.8 µM |  | > 100 µM | Active | > 100 µM | 7 °C | Activity (Calf thymus DNA [9]): Active; Activity [10]: Active; inhibition (qualitative) [11]: Active; fold change (FC) [13]: 2.2 |
| CC(C)NC(=N)c1ccc2nc(N3Cc4ccccc4C3=O)[nH]c2c1 | 71 µM | 0.93 µM |  |  | > 100 µM |  | 84.3 µM |  |  |  | 5.72 µM |  |  |
| Cl.Cl.c1ccc2c(c1)CN(c1nc3ccc(C4=NCCN4)cc3s1)/C2=N/c1nc2ccc(C3=NCCN3)cc2s1 | > 100 µM | 1.48 µM | Active | Active | 35 µM | 10.5 °C | 74.5 µM | 12.2 °C | 12.6 µM | Active | 31.8 µM | 6.8 °C | Activity (Calf thymus DNA [9]): Active; fold change (FC) [14]: 3.7 to 9; Activity [10]: Active; inhibition (qualitative) [11]: Active; fold change (FC) [15]: 1.5 to 3.7; fold change (FC) [13]: 3.5 |
| Cl.O=C1c2ccccc2CN1c1nc2ccc(C3=NCCN3)cc2s1 | 0.74 µM | 0.7 µM | Active | Active | 0.78 µM | 3.1 °C | 1 µM | 6.2 °C | 1.5 µM | Active | 0.2 µM | 1.8 °C | Activity (HeLa [16]): inactive; Activity (Calf thymus DNA [17]): Active; Activity (HeLa [18]): inactive; Activity (SW-620 [19]): 85.9%; Activity (HeLa [20]): Active; Activity (SW-620 [21]): Active; Activity (SW-620 [22]): Active; Activity (SW-620 [23]): Active; Activity (HeLa [24]): 29.1%; Activity (SW-620 [25]): 34.4%; Activity (SW-620 [26]): inactive; Activity (SW-620 [27]): inactive; Activity (HeLa [28]): 70.7%; Activity [29]: Active; Activity (HeLa [30]): Active |
| N#Cc1ccc2nc(N3Cc4ccccc4C3=O)[nH]c2c1 | > 100 µM | 5.06 µM |  |  | 10 µM |  | 24.1 µM |  |  |  | 15.8 µM |  |  |
| N=C(N)c1ccc2nc(N3Cc4ccccc4C3=O)[nH]c2c1 | > 100 µM | > 100 µM |  |  | 91.1 µM |  | 52.2 µM |  |  |  | 46.9 µM |  |  |
| CC[C@@]1(O)C(=O)OCc2c1cc1n(c2=O)Cc2cc3ccccc3nc2-1 |  |  |  |  |  |  |  |  |  |  |  |  | fold change (FC) [14]: 2.3 to 2.9; Activity [10]: Active; fold change (FC) [15]: 2; fold change (FC) [13]: 2.5 to 3.2 |
| COc1cc([C@@H]2c3cc4c(cc3[C@@H](O[C@@H]3O[C@@H]5CO[C@@H](C)O[C@H]5[C@H](O)[C@H]3O)[C@H]3COC(=O)[C@H]23)OCO4)cc(OC)c1O |  |  |  |  |  |  |  |  |  |  |  |  | Activity [29]: Active |
| N#Cc1ccc2nc(N3Cc4ccccc4C3=O)sc2c1 | > 100 µM | 9.93 µM |  |  | 61.5 µM |  | 54.7 µM |  |  |  | 44.5 µM |  |  |
| CC(C)NC(=N)c1ccc2nc(/N=C3\c4ccccc4CN3c3nc4ccc(C(=N)NC(C)C)cc4s3)sc2c1.Cl.Cl | 49.5 µM | 90.1 µM | Active | Active | 68.8 µM | 18 °C | 52.9 µM |  | 40 µM | Active | 4.72 µM | 12.7 °C | inhibition (qualitative) [11]: Active |
| c1ccc2c(c1)CN(c1nc3ccccc3[nH]1)/C2=N/c1nc2ccccc2[nH]1 | > 100 µM | 7.47 µM |  |  | 7.85 µM | -0.7 °C | 9.32 µM | -0.5 °C |  |  | 22.4 µM | -0.6 °C |  |
| O=C1c2ccccc2CN1c1nc2ccc(C3=NCCN3)cc2[nH]1 | 8.67 µM | 2.9 µM |  |  | 16.6 µM |  | 6.12 µM |  |  |  | 4.71 µM |  |  |
| N#Cc1ccc2nc(/N=C3\c4ccccc4CN3c3nc4ccc(C#N)cc4[nH]3)[nH]c2c1 | 70 µM | 0.02 µM | Active | Active | 17.9 µM | -0.4 °C | 75.7 µM | -0.5 °C | > 100 µM | Active | > 100 µM |  | Activity (Calf thymus DNA [2]): inactive |
| N#Cc1ccc2nc(/N=C3\c4ccccc4CN3c3nc4ccc(C#N)cc4s3)sc2c1 |  |  | Active | Active |  | -1.1 °C |  | -0.7 °C | 21.7 µM | Active |  |  | Activity (Calf thymus DNA [2]): inactive |
